Reference: patent US10688063B2, “Treating and/or preventing insulin-resistance related weight gain” (University of South Florida, priority 2013, dated 2020)

Key:
aPKC [1] = assay: aPKC activity in brains of heterozygous muscle-specific PKC-λ knockout mice (Western); format: in vivo, mouse; settings: treated for 8 days
Procedure: Standard lab mice (“control” or “con” mice) and heterozygous muscle-specific PKC-λ knockout mice were fed standard chow containing 10% fat. Some mice were treated for 8 days with ICAPP. Some mice were acutely treated with insulin (1 U/kg body weight administered intraperitoneally) 15 minutes prior to killing. Brain tissues were collected and prepared for phospho-protein analysis. Activity/activation of aPKC was assessed by Western blot analyses of phospho-protein immunoreactivity followed by quantitative scanning of the blots.

[2] = Glucose tolerance, serum parameters, body weight, food intake, liver and abdominal fat in HFF mice; format: in vivo, mouse
Procedure: Briefly, […] body weight was injected intraperitoneally. After the glucose injection, blood glucose levels were measured at 0, 30, 60, 90 and 120 minutes post-injection. 15 minutes prior to killing, mice were injected with or without insulin (1 U/kg body weight). Serum glucose, triglycerides, and serum cholesterol were measured using methods generally known in the art. Liver triglycerides were also measured using methods generally known in the art. Over the 10 weeks, body weight and food intake were measured weekly. Overall change in bodyweight was also evaluated. Additionally, epididymal plus retroperitoneal fat (also abbreviated PG/PN fat) was measured and evaluated as g/100 g of body weight. After killing, liver tissue samples were sectioned and prepared for Oil red O staining by methods generally known in the art. Samples were Oil Red O stained to observe hepatic fat contents.

FoxO1, WD40/ProF = assay: Hepatic Ser256-FoxO1 phosphorylation and aPKC/Akt in WD40/ProF immunoprecipitates in HFF mice; format: in vivo, mouse; settings: 10 weeks
Procedure: (§1) Post mortem, liver tissue was removed and examined for immunoreactivity of the indicated signaling factors.
For the results shown in FIG. 10A, liver cell lysates were prepared as previously described. Phosphorylated FoxO1 and un-phosphorylated FoxO1 were analyzed using western blotting as previously described except rabbit anti-phospho-Ser^256-FoxO1 antisera and anti-FoxO1 antiserum was used.
For the results in FIG. 10B, the indicated immunoreactive proteins were analyzed in the immunopercipitates via western blot as previously described except that rabbit anti-aPKC-λ/ι, FoxO1, or WD40/ProF antisera were used.

Akt2 = molecular target: T1, Akt2 (Mus musculus, UniProt Q60823); assay: Akt2 activity in liver and muscle of HFF mice, 10 weeks treatment; format: in vivo; settings: daily s.c. 10 weeks
T1 construct: from tissue; host or cells: mouse liver and muscle
T1 sequence (Q60823 whole entry): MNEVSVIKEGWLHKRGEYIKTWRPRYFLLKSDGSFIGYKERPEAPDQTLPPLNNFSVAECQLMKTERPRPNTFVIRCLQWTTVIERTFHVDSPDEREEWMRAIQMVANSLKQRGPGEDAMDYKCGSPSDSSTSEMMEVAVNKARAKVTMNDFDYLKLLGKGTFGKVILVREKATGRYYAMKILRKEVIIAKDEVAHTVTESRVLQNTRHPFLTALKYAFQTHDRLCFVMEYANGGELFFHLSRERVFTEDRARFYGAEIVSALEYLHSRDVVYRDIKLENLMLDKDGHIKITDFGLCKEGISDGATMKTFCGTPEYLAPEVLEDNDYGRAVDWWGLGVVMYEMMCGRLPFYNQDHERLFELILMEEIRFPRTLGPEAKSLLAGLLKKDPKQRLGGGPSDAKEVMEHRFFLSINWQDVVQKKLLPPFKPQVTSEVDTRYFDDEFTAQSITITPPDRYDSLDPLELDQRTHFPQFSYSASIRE

[3] = test system: Ser473-Akt, Ser9-GSK3β, Thr555/560-PKC-λ/ζ, Thr2448-mTOR; assay: Hepatic phosphorylation of Ser473-Akt, Ser9-GSK3β, Thr555/560-PKC-λ/ζ, Thr2448-mTOR in HFF mice (Western); format: in vivo, mouse; settings: 10 weeks
Procedure: as §1
Tissue Preparation: To prepare cell lysates, liver and muscle tissue samples were homogenized in ice-cold buffer containing 0.25 mol/l sucrose, 20 mmol/l Tris/HCl (pH, 7.5), 2 mmol/l EGTA, 2 mmol/l EDTA, 1 mmol/l phenlysulfonlyfluoride (PMSF), 20 μg/ml leupeptin, 10 μg/ml aprotinin, 2 mmol/l Na4P2O7, 2 mmol/l Na3VO4, 2 mmol/l NaF, and 1 μmol/l microcystin, and then supplemented with 1% TritonX-100, 0.6% Nonidet and 150 mmol/l NaCl, and cleared by low-speed centrifugation.
Western Analysis: Western analysis for the indicated signaling factors and GAPDH (endogenous control) were conducted as described in Sajan and Farese. 2012 Diabetologia. 55:1446-1457, Standaert et al. 2004. J. Biol. Chem. 279:24929-24934, Sajan et al. 2012. Metabolism. 61:459-469, Sajan et al. 2009. Diabetologia. 52:1197-1207, Sajan et al. 2009. J. Lipid Res. 50:1133-1145, and Sajan et al. 2013. Diabetologia. 56:2507-2516 using […] anti-phospho-Ser^473-Akt antiserum, rabbit anti-glyceraldehyde-phosphate dehydrogenase (GAPDH) antiserum, rabbit anti-WD40-ProF antiserum, and rabbit anti-aPKC antiserum (Santa Cruz Biotechnologies, Santa Cruz, Calif.); rabbit anti-phospho-Thr560/555 PKC-ζ/λ/ι antiserum (Invitrogen, Carlsbad, Calif.); rabbit anti-p-Ser^256-FoxO1 and anit-FoxO1 antiserum (Abnova, Walnut, Calif.); mouse monoclonal anti-PKC-λ/ι antibodies (Transduction Antibodies, Bedford, Mass.); and rabbit anti-phospho-Ser^9-GSK3β antiserum, rabbit anti-phosphoSer^[…]-mTOR antiserum, and mouse anti-Akt antibodies (Cell Signaling Technologies, Danvers, Mass.). Samples from experimental groups were compared on the same blots and corrected for recovery as needed by measurement of GAPDH immunoreactivity.

aPKC [4] = assay: aPKC activity in liver and muscle of high fat fed (HFF) mice, 10 weeks treatment; format: in vivo, mouse; settings: daily s.c. 10 weeks
[5] = test system: SREBP-1c, FAS, PEPCK, G6Pase; assay: Hepatic mRNA and protein levels of lipogenic and gluconeogenic enzymes in HFF mice; format: in vivo, mouse; settings: 10 weeks, ad libitum-fed
Procedure: as §1
Nuclear preparations were also prepared as described in Sajan et al. 2009. Diabetologia. 52:1197-1207. Western analysis was conducted to evaluate the indicated immunoreactive proteins as in Example 7, except in this Example, rabbit polyclonal anti-GAPDH antiserum, rabbit polyclonal anti-FAS antiserum, rabbit polyclonal anti-PEPCK antiserum, rabbit polyclonal anti-G6Pase antiserum (Santa Cruz Biotechnologies, Santa Cruz, Calif.), and mouse monoclonal anti-SREBP-1 antibodies (Lab Vision Corp., Freemont, Calif.) were used to detect the indicated proteins.

aPKC [6] = assay: Effect of ceramide on aPKC immunoprecipitated from liver lysates of LF and HF fed mice; format: biochemical, mouse
Procedure: Standard (C57BI/6/SV129) mice consumed a standard low-fat or high-fat diet for 10 weeks. At 10 weeks mice were treated with or without insulin for 15 min prior to killing. Liver cell lysates were prepared as in Example 5 and aPKC activity assay was performed on the aPKC immunoprecipitate as in Example 5, except here the activity assays were carried out in the presence of the indicated concentrations of ceramide. Additionally, the levels of ceramide and sphingomyelin species in lipid extracts prepared from the liver cell lysates. Ceramide and sphingomyelin species were measured by liquid chromatography tandem mass spectrometry analysis of the lipid extracts of the liver lysates.

[7] = toward, not fully to, normal levels

Molecule: NC(=O)c1ncn([C@@H]2C[C@H](COP(=O)(O)O)[C@@H](O)[C@H]2O)c1N [ICAPP]
- aPKC activity in the brain (aPKC [1]): decreased

Molecule: NC(=O)c1ncn(C2CC(COP(=O)(O)O)C(O)C2O)c1N (stereo not drawn) [ICAP]
- HFF-induced increases in abdominal fat depots ([2]; 10 weeks): improved
- food intake ([2]; 10 weeks): without altering
- increases in liver triglycerides and fat content ([2]; 10 weeks): largely prevented
- increases in serum triglycerides and cholesterol levels ([2]; 10 weeks): largely prevented
- weight gain ([2]; 10 weeks): largely prevented
- fasting insulin levels ([2]; still modestly elevated): improved
- glucose tolerance, basal glucose levels (fasting and fed), acute effects of insulin on serum glucose ([2]; to levels indistinguishable from control chow-fed mice): improved
- WD40/ProF-associated Akt activity (FoxO1, WD40/ProF; HFF mice liver): increased
- aPKC binding to WD40/ProF (FoxO1, WD40/ProF; HFF mice liver): diminished
- basal/resting and insulin-stimulated hepatic FoxO1 phosphorylation (FoxO1, WD40/ProF; HFF mice): fully or partially restored
- hepatic Akt2 activity (Akt2; ICAP 1 mg/kg, ACPD 10 mg/kg): increased further
- muscle Akt2 activity (Akt2; [7]): increased
- hepatic phosphorylation of Ser9-GSK3β and Ser2448-mTOR [3]: not altered
- insulin-stimulated Akt2 activity in liver (Ser473-Akt phosphorylation) [3]: increased
- resting Akt2 activity in liver (Ser473-Akt phosphorylation) [3]: did not alter
- basal/resting and exogenous insulin-stimulated hepatic aPKC activities (Thr555/560 phosphorylation) ([3]; to levels of control low fat fed mice): reduced
- resting and insulin-stimulated hepatic aPKC activity (aPKC [4]; ICAP 1 mg/kg, ACPD 10 mg/kg, to control levels): diminished
- muscle aPKC activity (aPKC [4]; [7]): increased
- hepatic mRNA levels of SREBP-1c, FAS, PEPCK, G6Pase versus control/low-fat fed mice [5]: not significantly different
- hepatic protein levels of SREBP-1c, FAS, PEPCK, G6Pase versus control/low-fat fed mice [5]: not significantly different

Molecule: ceramide
- activity of aPKC immunoprecipitated from liver lysates (aPKC [6]; HFF mice): only a weak effect
- activity of aPKC immunoprecipitated from liver lysates (aPKC [6]; HFF mice treated acutely with insulin): diminished activity
- activity of aPKC immunoprecipitated from liver lysates (aPKC [6]; LFF/control mice): strongly activated
